Key:
[1] = Partitioning experiment, aqueous solution / dichloromethane; format: physicochemical; conditions: 4 mM compound, pH 4; for Log P: dichloromethane/aqueous; for 2,2-dimethyl-N,N-dichlorotaurine in aqueous After Partitioning % 2,2-dimethyl-N,N-dichlorotaurine: equal volume dichloromethane overnight
Description: Example 6 provides evidence of ion pairing taking place between a N-halogenated amino acid and a phase transfer agent, and the resulting changes in partitioning behavior. The partitioning experiment can be used to evaluate a compound's apparent lipophilicity and the potential improvement in antimicrobial activity when used on tissue.
Aqueous solutions were prepared containing 0.1% (4 mM) sodium 2,2-dimethyl-N,N-dichlorotaurine, tetrabutylammonium hydroxide (TBAH) at 0 mM, 1 mM, 4 mM, or 10 mM, 5 mM sodium acetate, sodium chloride to adjust osmolality to isotonic, and sodium hydroxide and/or hydrochloric acid to adjust pH to 4.
These aqueous solutions were assayed for 2,2-dimethyl-N,N-dichlorotaurine by reverse phase high pressure liquid chromatography. Each solution was then combined with an equal volume of dichloromethane, mixed on a rocker overnight, and the aqueous phase reassayed. The percent loss of 2,2-dimethyl-N,N-dichlorotaurine from the aqueous phase and theoretical percent of 2,2-dimethyl-N,N-dichlorotaurine partitioning to the dichloromethane were calculated and plotted versus the concentration of TBAH.
The theoretical percentage of 2,2-dimethyl-N,N-dichlorotaurine in dichloromethane phase is calculated as 100 percent minus the percent remaining in aqueous phase. FIG. 2 graphically illustrates the results of the above-described partitioning experiment. When 4 mM 2,2-dimethyl-N,N-dichlorotaurine in aqueous solution is combined with varying concentrations of TBAH, the quantity of 2,2-dimethyl-N,N-dichlorotaurine found in the aqueous solution decreases. Without added TBAH, almost all the 2,2-dimethyl-N,N-dichlorotaurine is found in the aqueous fraction. However, with 10 mM TBAH, most of the 2,2-dimethyl-N,N-dichlorotaurine has left the aqueous fraction and partitioned to the dichloromethane. This experiment is evidence of ion pair formation with TBAH phase transfer agent, which increases the apparent lipophilicity of the 2,2-dimethyl-N,N-dichlorotaurine.

C. albicans = assay: Antimicrobial activity by standard microbiological analysis (viability after exposure to test agent); format: cell-based; conditions: when 10 mM TBAH phase transfer agent is added
Description: The antimicrobial activity of certain formulations described herein was evaluated by a standard microbiological analysis. For the evaluation, bacterial and fungal isolates were grown overnight on appropriate agar media as source of fresh cells. A suspension of these fresh cells was prepared in saline at approximately 1×10^8 cfu/mL. These suspensions were added directly to the test agents (various solutions of sodium 2,2-dimethyl-N,N-dichlorotaurine and control solutions). The initial concentration of cells in the test agent solutions was approximately 1×10^6 cfu/mL. The exposure of microorganisms to the test agent was conducted at room temperature for up to 60 minutes. At selected times, an aliquot was withdrawn and diluted into phosphate buffered saline at 4° C. Viability was determined following serial dilution and filtration onto Milliflex cassettes.

CC(C)(CS(=O)(=O)O)N(Cl)Cl [2,2-dimethyl-N,N-dichlorotaurine]
2,2-dimethyl-N,N-dichlorotaurine in aqueous After Partitioning % in Aqueous ([1]; TBAH 0 mM): 96.1%
2,2-dimethyl-N,N-dichlorotaurine in aqueous Before Partitioning % 2,2-dimethyl-N,N-dichlorotaurine ([1]; TBAH 0 mM): 0.1007%
Calculated 2,2-dimethyl-N,N-dichlorotaurine % in CH2Cl2 After Partitioning Theory % in Dichloromethane ([1]; TBAH 0 mM): 3.9%
Log P ([1]; TBAH 0 mM): −1.39
2,2-dimethyl-N,N-dichlorotaurine in aqueous After Partitioning % 2,2-dimethyl-N,N-dichlorotaurine ([1]; TBAH 0 mM): 0.09675%
2,2-dimethyl-N,N-dichlorotaurine in aqueous After Partitioning % in Aqueous ([1]; TBAH 1 mM): 76.1%
2,2-dimethyl-N,N-dichlorotaurine in aqueous Before Partitioning % 2,2-dimethyl-N,N-dichlorotaurine ([1]; TBAH 1 mM): 0.1008%
Calculated 2,2-dimethyl-N,N-dichlorotaurine % in CH2Cl2 After Partitioning Theory % in Dichloromethane ([1]; TBAH 1 mM): 23.9%
Log P ([1]; TBAH 1 mM): −0.50
2,2-dimethyl-N,N-dichlorotaurine in aqueous After Partitioning % 2,2-dimethyl-N,N-dichlorotaurine ([1]; TBAH 1 mM): 0.07672%
2,2-dimethyl-N,N-dichlorotaurine in aqueous After Partitioning % in Aqueous ([1]; TBAH 4 mM): 35.4%
2,2-dimethyl-N,N-dichlorotaurine in aqueous Before Partitioning % 2,2-dimethyl-N,N-dichlorotaurine ([1]; TBAH 4 mM): 0.1008%
Calculated 2,2-dimethyl-N,N-dichlorotaurine % in CH2Cl2 After Partitioning Theory % in Dichloromethane ([1]; TBAH 4 mM): 64.6%
Log P ([1]; TBAH 4 mM): 0.26
2,2-dimethyl-N,N-dichlorotaurine in aqueous After Partitioning % 2,2-dimethyl-N,N-dichlorotaurine ([1]; TBAH 4 mM): 0.03573%
2,2-dimethyl-N,N-dichlorotaurine in aqueous After Partitioning % in Aqueous ([1]; TBAH 10 mM): 11.9%
2,2-dimethyl-N,N-dichlorotaurine in aqueous Before Partitioning % 2,2-dimethyl-N,N-dichlorotaurine ([1]; TBAH 10 mM): 0.1009%
Calculated 2,2-dimethyl-N,N-dichlorotaurine % in CH2Cl2 After Partitioning Theory % in Dichloromethane ([1]; TBAH 10 mM): 88.1%
Log P ([1]; TBAH 10 mM): 0.87
2,2-dimethyl-N,N-dichlorotaurine in aqueous After Partitioning % 2,2-dimethyl-N,N-dichlorotaurine ([1]; TBAH 10 mM): 0.01198%
antimicrobial activity (FIG. 1) (C. albicans): dramatically increased

Reference: US20080275123A1, “N-HALOGENATED AMINO ACID FORMULATIONS” (ALCON RESEARCH, LTD., priority 2007, published 2008)
